Conditions in all cases: in vivo
For one data set, the target named is T1, CYP3a1 (Rattus norvegicus, UniProt P04800).
T1 sequence (P04800 1-504): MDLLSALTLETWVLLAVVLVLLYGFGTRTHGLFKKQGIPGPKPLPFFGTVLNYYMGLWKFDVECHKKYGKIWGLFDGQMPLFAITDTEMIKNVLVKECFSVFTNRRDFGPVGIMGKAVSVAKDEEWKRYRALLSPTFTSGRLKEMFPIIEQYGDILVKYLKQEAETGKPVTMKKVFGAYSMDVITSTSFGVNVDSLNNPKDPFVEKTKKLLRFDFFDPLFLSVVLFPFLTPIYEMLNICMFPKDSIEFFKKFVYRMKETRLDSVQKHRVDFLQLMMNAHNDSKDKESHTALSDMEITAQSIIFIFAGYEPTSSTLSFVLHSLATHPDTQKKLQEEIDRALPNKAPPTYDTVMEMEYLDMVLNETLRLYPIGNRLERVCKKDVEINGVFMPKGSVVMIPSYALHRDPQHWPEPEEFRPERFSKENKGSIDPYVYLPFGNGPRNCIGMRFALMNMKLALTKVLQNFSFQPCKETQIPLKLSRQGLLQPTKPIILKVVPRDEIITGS
More on the design: from tissue; host or cells: live male Sprague-Dawley rats (whole animal, liver and intestine).

A further data set has as its target T2, CYP2c11 (Rattus norvegicus, UniProt P08683).
T2 sequence (P08683 1-500): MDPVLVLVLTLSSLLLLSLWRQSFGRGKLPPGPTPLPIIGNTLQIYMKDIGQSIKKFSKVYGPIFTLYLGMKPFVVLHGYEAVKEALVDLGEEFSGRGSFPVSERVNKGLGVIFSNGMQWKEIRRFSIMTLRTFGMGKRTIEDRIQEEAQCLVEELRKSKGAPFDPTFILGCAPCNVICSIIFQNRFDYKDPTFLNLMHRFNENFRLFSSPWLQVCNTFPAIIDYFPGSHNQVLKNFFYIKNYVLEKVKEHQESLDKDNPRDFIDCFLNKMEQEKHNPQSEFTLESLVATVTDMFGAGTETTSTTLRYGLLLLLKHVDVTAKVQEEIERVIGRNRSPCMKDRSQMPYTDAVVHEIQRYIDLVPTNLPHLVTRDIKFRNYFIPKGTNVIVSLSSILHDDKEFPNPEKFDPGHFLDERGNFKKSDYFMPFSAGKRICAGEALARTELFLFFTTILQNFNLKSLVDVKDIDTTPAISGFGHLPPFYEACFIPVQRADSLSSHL
More on the design: from tissue; host or cells: live male Sprague-Dawley rats (whole animal, mainly liver).

The next data set concerns the target T3, CYP2d2 (Rattus norvegicus, UniProt P10634).
T3 sequence (P10634 1-500): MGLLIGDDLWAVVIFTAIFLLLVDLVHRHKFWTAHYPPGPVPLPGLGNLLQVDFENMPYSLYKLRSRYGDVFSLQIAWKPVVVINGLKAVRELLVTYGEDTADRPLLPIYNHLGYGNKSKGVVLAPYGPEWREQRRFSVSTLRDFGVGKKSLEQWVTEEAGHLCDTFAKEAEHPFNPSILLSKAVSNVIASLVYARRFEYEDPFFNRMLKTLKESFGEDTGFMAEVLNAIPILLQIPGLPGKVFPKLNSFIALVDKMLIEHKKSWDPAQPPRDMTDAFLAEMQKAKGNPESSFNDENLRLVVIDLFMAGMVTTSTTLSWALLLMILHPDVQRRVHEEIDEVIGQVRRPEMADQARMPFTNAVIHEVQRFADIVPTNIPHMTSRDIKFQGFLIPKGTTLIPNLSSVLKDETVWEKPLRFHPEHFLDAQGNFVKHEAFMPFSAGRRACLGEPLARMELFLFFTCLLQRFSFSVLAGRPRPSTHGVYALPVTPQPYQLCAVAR
More on the design: from tissue; host or cells: live male Sprague-Dawley rats (whole animal, mainly liver).

The target in a further data set is CYP2e1 (Rattus norvegicus, UniProt P05182). As for the experimental part:
The effect of the Zhicaowu–Hezi combination on CYP450 enzymes in rats was evaluated by examining the pharmacokinetics of theophylline (CYP1a2), metoprolol (CYP2d2), bupropion (CYP2b1), omeprazole (CYP2c13), chlorzoxazone (CYP2e1), testosterone (CYP3a1), and diclofenac (CYP2c11).
The collected blood was placed in sodium heparin-treated centrifuge tubes and centrifuged at 4°C for 10 min at 3,000 RPM. […] After 10 min of sedimentation, the supernatant was extracted through a 0.22-μm microporous membrane, 20 μL of which was injected into HPLC. The pharmacokinetic parameters of each probe drug were calculated using the non-atrial compartment model in Drug and Statistics software (DAS, 3.0; Shanghai, China).

CYP2e1, sequence (P05182 whole entry): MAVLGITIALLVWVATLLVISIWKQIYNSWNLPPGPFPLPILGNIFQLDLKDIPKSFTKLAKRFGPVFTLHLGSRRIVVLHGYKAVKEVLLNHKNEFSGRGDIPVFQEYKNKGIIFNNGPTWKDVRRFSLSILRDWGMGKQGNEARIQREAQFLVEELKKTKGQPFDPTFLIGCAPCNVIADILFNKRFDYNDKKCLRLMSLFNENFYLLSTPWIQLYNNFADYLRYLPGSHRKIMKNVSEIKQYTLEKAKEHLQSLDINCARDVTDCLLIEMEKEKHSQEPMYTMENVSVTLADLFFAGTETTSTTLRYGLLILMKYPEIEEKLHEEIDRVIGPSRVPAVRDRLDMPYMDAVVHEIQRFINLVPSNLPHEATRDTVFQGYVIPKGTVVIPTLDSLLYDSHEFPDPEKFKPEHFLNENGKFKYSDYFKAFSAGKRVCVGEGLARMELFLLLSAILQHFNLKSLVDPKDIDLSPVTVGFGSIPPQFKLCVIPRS

As to `CCC1(c2ccccc2)C(=O)NC(=O)NC1=O` [P, phenobarbital sodium], at CYP3a1, the “testosterone AUC(0-t)” value is 756 ± 48 ng·h/mL, the “testosterone AUC(0-∞)” value is 907 ± 93 ng·h/mL, the “testosterone CLz/F” value was 6,479.436 ± 351.908 mL/h/kg and the “testosterone Cmax” value was found to be 107 ± 15 ng/mL. Moreover, the “testosterone t1/2 z” value at CYP3a1 came out at 7.394 ± 0.958 h. On CYP2c11, the “diclofenac AUC(0-t)” value is 3978 ± 385 ng·h/mL, the “diclofenac AUC(0-∞)” value turned out to be 4057 ± 343 ng·h/mL, the “diclofenac CLz/F” value is recorded as 3,071.310 ± 519.261 mL/h/kg and the “diclofenac Cmax” value amounted to 735 ± 68 ng/mL. Moreover, the “diclofenac t1/2 z” value on CYP2c11 was 3.342 ± 0.425 h. On CYP2d2, the “metoprolol AUC(0-t)” value was 3511 ± 445 ng·h/mL, the “metoprolol AUC(0-∞)” value turned out to be 3623 ± 461 ng·h/mL, the “metoprolol CLz/F” value was 2,495.074 ± 157.841 mL/h/kg and the “metoprolol Cmax” value worked out at 312 ± 41 ng/mL. Further, at CYP2d2, the “metoprolol t1/2 z” value amounted to 2.532 ± 0.221 h. Also, on CYP2e1, the “chlorzoxazone AUC(0-t)” value was found to be 32754 ± 4037 ng·h/mL, the “chlorzoxazone AUC(0-∞)” value was found to be 47632 ± 6051 ng·h/mL, the “chlorzoxazone CLz/F” value stood at 13.4061 ± 1.1103 mL/min/kg and the “chlorzoxazone Cmax” value came out at 3543 ± 431 ng/mL. The “chlorzoxazone t1/2 z” value at CYP2e1 came to 13.368 ± 1.308 h.
